ChEMBL document CHEMBL3832064, “DailyMed|setid=5eda246b-ac51-46e7-b473-35937f84ed05 | GLIMEPIRIDE - glimepiride tablet|Perrigo New York Inc”
Where “and” joins values, the source holds several entries; their conditions need not be identical. Identical values can stand only once.

What was measured:
Assay type in all cases: ADME, organism-based
[1] = organism: Homo sapiens; test: (§1) Evalaution of pharmacokinetic parameters for Glimepiride following multiple doses of Glimepiride […] to healthy subjects and to patients with type 2 diabetes; design: dose 4 mg, dose 8 mg, route oral; settings: in vivo, po, dosed compound id 27, dosed compound name GLIMEPIRIDE, regimen Multiple dose, study dosing duration 10 days, tissue Plasma
[2] = as §1; design: dose 4 mg, dose 8 mg, route oral; settings: human, in vivo, dosed compound id 27, dosed compound name GLIMEPIRIDE, regimen Multiple dose, study dosing duration 10 days, tissue Plasma
[3] = system: Homo sapiens; test: (§2) Evalaution of pharmacokinetic parameters for Glimepiride following single oral […] of Glimepiride tablets […] to healthy subjects and to patients with type 2 diabetes.; design: dose 4 mg, dose 1 mg, dose 2 mg, dose 8 mg, route oral; settings: in vivo, po, dosed compound id 27, dosed compound name GLIMEPIRIDE, regimen Single dose, tissue Plasma
[4] = as §2; design: dose 4 mg, dose 1 mg, dose 2 mg, dose 8 mg, route oral; settings: human, in vivo, dosed compound id 27, dosed compound name GLIMEPIRIDE, regimen Single dose, tissue Plasma
[5] = Pharmacokinetic parameters evaluated following intravenous […] of Glimepiride […] to normal subjects.; settings: human, in vivo, dosed compound id 27, dosed compound name GLIMEPIRIDE, tissue Plasma
[6] = dose 1-8 mg, study dosing duration 1 day

CCC1=C(C)CN(C(=O)NCCc2ccc(S(=O)(=O)NC(=O)N[C@H]3CC[C@H](C)CC3)cc2)C1=O [GLIMEPIRIDE]
Cmax [1]: 309 ng/mL | Cmax ([2]; po): 578 ng/mL | CL/F ([2]; dose 1-8 mg, route oral): 52.7 mL/min | Tmax ([2]; dose 1-8 mg, route oral): 2.8 h | Vd/F ([2]; dose 1-8 mg, route oral): 37.1 L | half-life ([2]; dose 1-8 mg, route oral): 9.2 h | t1/2 ([3]; dose 1 mg, gender male and female): 5.3 h | CL/F [3, 6]: 48.5 mL/min | Tmax [3, 6]: 2.5 h | Vd/F [3, 6]: 19.8 L | t1/2 [3, 6]: 5 h | AUC(0-last) ([3]; gender male and female): 315.2 ng·h/mL | Cmax ([3]; gender male and female): 102.4 ng/mL and 103.2 ng/mL | Cmax ([3]; study dosing duration 1 day): 352 ng/mL and 591 ng/mL | AUC ([4]; po, gender male and female, read-out: AUC(0-last)): 339 ng·h/mL | half-life ([4]; dose 1 mg, gender male and female, route oral): 3.1 h | CL/F ([4]; dose 1-8 mg, route oral): 52.1 mL/min | Tmax ([4]; dose 1-8 mg, route oral): 2.4 h | Vd/F ([4]; dose 1-8 mg, route oral): 21.8 L | Vd [5]: 8.8 L | clearance [5]: 47.8 mL/min
